{"source": "patent US20030170893A1", "about": "“NANOCAPSULE ENCAPSULATION SYSTEM AND METHOD” (Genesegues, Inc., priority 2000, published 2003)", "key": {"[1]": {"system": "human dermal fibroblast (HDF) cultures", "test": "Cell growth inhibition, MTT assay, fibroblasts", "format": "cell-based", "settings": "18 hours treatment, 72 hours total growth time", "procedure": "Cells were seeded overnight into 96 well plates, treated for 18 hours with increasing amounts of encapsulated or unencapsulated drug, then assessed for cell growth inhibition using an MTT assay 48 hours later for total growth time of 72 hours."}, "[2]": {"system": "squamous cell carcinoma cultures", "test": "Cell growth inhibition, MTT assay, carcinoma", "format": "cell-based, human", "settings": "18 hours treatment, 72 hours total growth time", "protocol": "FIG. 6C: Carcinoma cells and HDF's were seeded overnight into 96 well plates at 2000 and 6000 cells per well respectively. Cisplatin preparations were added to wells for 18 hours as noted on the graph than washed out. After 72 hours cell viability of assessed by a commercial MTT assay (WST assay, Boehringer Mannheim). Wells were executed in duplicate.\nNanocapsules were prepared as described in Example 1 to encapsulate cisplatin, a […] molecule and a common cancer chemotherapeutic with serious side effects. A coating weight ratio of 1:100 was used and irregular nanocapsules of 29±3 nm were produced. […] Cells were seeded overnight into 96 well plates, treated for 18 hours with increasing amounts of encapsulated or unencapsulated drug, then assessed for cell growth inhibition using an MTT assay […] for total growth time of 72 hours. Results are illustrated in FIG. 6C."}}, "data": [{"compound": "N.N.[Cl][Pt][Cl]", "note": "[unencapsulated drug, cisplatin]", "values": [{"measurement": "Cell death of nontarget cells", "setting": "[1]", "result": "killed"}, {"measurement": "inhibition concentration (IC50)", "setting": "[2]", "result": 525, "unit": "µg/mL"}]}]}
